Measurements published in article PMC12042413 (Cell chemical biology, 2025).

Assays:
CDK9/Cyclin T1 = CDK9/Cyclin T1 (Homo sapiens, UniProt P50750); test: biochemical kinase IC50
CDK9 = CDK9 (Homo sapiens, UniProt P50750); test: competition rescue of CDK9 degradation in MOLT-4 cells; format: cell-based
Chain of CDK9 (P50750 whole entry): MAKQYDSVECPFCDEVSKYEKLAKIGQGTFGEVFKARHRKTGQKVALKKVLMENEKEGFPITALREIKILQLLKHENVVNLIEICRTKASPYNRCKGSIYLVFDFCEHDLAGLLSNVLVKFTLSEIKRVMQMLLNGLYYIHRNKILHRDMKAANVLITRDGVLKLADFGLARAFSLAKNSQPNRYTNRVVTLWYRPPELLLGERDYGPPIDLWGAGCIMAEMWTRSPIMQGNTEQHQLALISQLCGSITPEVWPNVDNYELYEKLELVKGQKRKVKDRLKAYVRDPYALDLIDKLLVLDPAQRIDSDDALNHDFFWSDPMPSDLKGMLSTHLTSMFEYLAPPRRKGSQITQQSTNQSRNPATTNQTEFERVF

Chain of CDK9/Cyclin T1 (P50750 whole entry): as above
Chain of CDK9/Cyclin T1 (O60563 whole entry partner): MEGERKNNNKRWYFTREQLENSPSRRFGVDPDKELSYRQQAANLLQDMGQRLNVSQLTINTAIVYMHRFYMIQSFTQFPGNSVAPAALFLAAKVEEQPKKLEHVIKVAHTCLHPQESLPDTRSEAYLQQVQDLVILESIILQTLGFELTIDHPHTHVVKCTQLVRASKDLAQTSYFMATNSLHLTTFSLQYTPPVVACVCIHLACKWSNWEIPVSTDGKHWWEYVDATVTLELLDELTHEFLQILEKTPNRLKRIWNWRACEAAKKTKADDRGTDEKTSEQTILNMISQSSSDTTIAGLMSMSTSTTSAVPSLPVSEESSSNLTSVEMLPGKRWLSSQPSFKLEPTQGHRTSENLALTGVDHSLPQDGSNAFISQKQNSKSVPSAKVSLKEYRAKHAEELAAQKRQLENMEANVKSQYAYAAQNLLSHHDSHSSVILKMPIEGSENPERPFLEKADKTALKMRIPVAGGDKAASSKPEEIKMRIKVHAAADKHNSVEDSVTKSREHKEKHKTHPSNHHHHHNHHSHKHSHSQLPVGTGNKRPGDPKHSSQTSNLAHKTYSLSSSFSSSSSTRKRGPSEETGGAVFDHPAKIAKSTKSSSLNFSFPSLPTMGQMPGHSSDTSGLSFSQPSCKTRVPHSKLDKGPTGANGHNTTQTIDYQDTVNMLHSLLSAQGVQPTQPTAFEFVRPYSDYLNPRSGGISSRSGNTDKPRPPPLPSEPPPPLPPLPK

Compound | IC50 (CDK9/Cyclin T1) [nM] | competition rescue of CDK9 degradation in MOLT-4 cells (Western blot, 5 uM) (CDK9)
CCCc1cc(N[C@@H]2CC[C@@H](NC(=O)c3ccc(CN4CCN(c5ccc6c(c5)CN(C5CCC(=O)NC5=O)C6=O)CC4)cc3)C2)n2nccc2n1 (stereo partly drawn) [KI-CDK9d-32, 4-((4-(2-(2,6-dioxopiperidin-3-yl)-1-oxoisoindolin-5-yl)piperazin-1-yl)methyl)-N-((1R,3R)-3-((5-propylpyrazolo[1,5-a]pyrimidin-7-yl)amino)cyclopentyl)benzamide] | 3 | 
CCCc1cc(N[C@@H]2CC[C@@H](NC(=O)c3ccc(CN4CCN(c5ccc6c(c5)CN(C5CCC(=O)N(C)C5=O)C6=O)CC4)cc3)C2)n2nccc2n1 (stereo partly drawn) [KI-CDK9d-32N, 4-((4-(2-(1-methyl-2,6-dioxopiperidin-3-yl)-1-oxoisoindolin-5-yl)piperazin-1-yl)methyl)-N-((1R,3R)-3-((5-propylpyrazolo[1,5-a]pyrimidin-7-yl)amino)cyclopentyl)benzamide] |  | rescued through co-treatments with excess KB-0742, pomalidomide, or KI-CDK9d-32N, a negative control PROTAC with impaired CRBN binding
